Data reported in patent publication US12370193B2, “Method of inhibiting TREM-1” (UNIVERSITY OF FLORIDA RESEARCH FOUNDATION, INCORPORATED, priority 2019, dated 2025).

Columns and labels:
TREM-1 [1] = assay: TREM-1 gene expression in LPS-stimulated RAW264.7 cells (RNA sequencing, qPCR); assay type: cell-based, mouse
Experimental: (§1) FIG. 2B are graphs showing TREM-1 gene expression by q-PCR. […] All experiments were performed with 3 biological replicates and the median value of TREM-1 fluorescence was represented by the graph on the bottom.
(§2) Quantitative RT-PCR: Total RNA was extracted from EL4 or RAW264.7 cells using RNeasy Plus Micro Kit (Qiagen) and the RNA was reverse transcribed using the ABI reverse transcription kit (Applied Biosystems/Thermo Fisher Scientific, Waltham MA). Quantitative PCR was performed with a 7900HT Fast Real Time PCR System (Applied Biosystems) using SYBR green (Roche).
(§3) mRNA sequencing analysis: RAW264.7 cells RNA extraction protocol for RNA seq was derived from Qiagen Kit-74106. Total RNA was quantified using the Qubit 2.0 Fluorometer (Invitrogen, Carlsbad, CA) and run on the Agilent 2100 Bioanalyzer (Agilent Technologies, Santa Clara, CA) for quality assessment. RNA samples of good quality with RNA Integrity Number (RIN)>8.0 were further processed. A RNase-free working environment was maintained and RNase-free tips, Eppendorf tubes and plates were utilized for the subsequent steps. Messenger RNA was selectively isolated from total RNA (300 ng input) using poly-T oligos attached to magnetic beads and converted to sequence-ready libraries using the TruSeq stranded mRNA sample prep protocol (Cat. #: RS-122-2101, Illumina, San Diego, CA). The final libraries were validated on the bioanalyzer DNA chips and qPCR quantified using primers that recognize the illumina adaptors. The libraries were then pooled at equimolar ratios, quantified using qPCR and loaded onto the NextSeq 500 flow cell at 1.8 pM final concentration. They were sequenced using the high-output, paired-end, 75-bp chemistry. Demultiplexed and quality filtered raw reads (fastq) generated from the NextSeq 500 were trimmed (adaptor sequences) using Flexbar 2.4 and aligned to the mouse reference database (mm9) using TopHat version 2.0.9 (Trapnell et al., 2009). HTseq-count version 0.6.1 was used to generate gene counts and differential gene expression analysis was performed using Deseq2 (Anders and Huber, 2010).

RORβ = assay: Gal4-RORβ co-transfection promoter-reporter assay; assay type: cell-based; conditions: Gal4 assay format
Experimental: Reporter gene assays: Twenty-four hours before transfection, HEK293T cells were plated in 96-well plates at a density of 15×10^3 cells per well. UAS:luciferase reporter and Ga14-RORa, Gal4-RORb, Gal4-RORγ, Gal4-LXRα, or Gal4 PPARγ DNA co-transfections were performed using X-tremeGENE 9 (Roche). Twenty-four hours after transfection, the cells were treated with vehicle or compound. Twenty-four hours after treatment, the luciferase activity was measured using the Dual-Glo luciferase assay system (Promega). Results were analyzed using GraphPad Prism software.

murine TREM1 promoter = assay: TREM1 promoter reporter (luciferase) assay; assay type: cell-based, Mus musculus
Experimental: Each LXRβ, PPARγ, and RORγ full length plasmid was co-transfected with TREM1/pGL3 using X-tremeGENE 9 into HEK293T cells. After 48 hrs, luciferase activity was measured using BriteLite plus assay system (PerkinElmer).

Pharmacokinetics in mice = assay type: in vivo; conditions: 20 mg/kg twice-a-day
Experimental: Compound was formulated in 10/10/80 DMSO/Tween80/Water and administered to mice at either 20 mg/kg by oral gavage or at 25 mg/kg via intraperitoneal injection. Blood was drawn at the indicated times and plasma was generated. Following solid phase extraction, drug levels were quantitated using LC-MSMS.

RAW264.7 cells = assay: LXR target, cytokine and SENP gene expression in LPS-stimulated RAW264.7 cells; assay type: cell-based, mouse
Experimental: FIGS. 3A-3D: Comparison with LXR agonist. […] FIGS. 3C and 3D show log 2 fold change of SENP3 expression in RAW264.7 cells mRNAseq and q-PCR.
as §2, §3

EL4 cells = assay: RORγ target gene expression in PMA/ionomycin stimulated EL4 cells; assay type: cell-based; conditions: PMA and ionomycin, compound at 10 μM
Source text: FIG. 1D is a graph showing PPARγ target genes (aP2 and CD36) expression in OP9 cells with and without MDI (IBMX, dexamethasone, insulin) treatment. […] Specific residues driving the interaction labelled and shown as sticks as well. […] Quantitative RT-PCR: Total RNA was extracted from EL4 or RAW264.7 cells using RNeasy Plus Micro Kit (Qiagen) and the RNA was reverse transcribed using the ABI reverse transcription kit (Applied Biosystems/Thermo Fisher Scientific, Waltham MA). Quantitative PCR was performed with a 7900HT Fast Real Time PCR System (Applied Biosystems) using SYBR green (Roche).

diet-induced obesity = assay: Diet-induced obese (DIO) mouse model; assay type: in vivo, DIO mice
[2] = Food intake in lean mice and conditioned taste aversion; assay type: in vivo
TREM-1 [3] = assay: TREM-1 surface expression by FACS in LPS-stimulated RAW264.7 cells; assay type: cell-based, mouse; conditions: 50 hr incubation
Experimental: as §1
Flow cytometry and antibodies: For the analysis of macrophage activation, RAW264.7 cells (American Type Culture Collection) were pre-incubated with 5 μM 1903 for 18 h then stimulated with 1 μg/mL LPS (Escherichia coli 0127:B8, Sigma-Aldrich (St. Louis, MO)) for 6 h. RAW264.7 cells were stained with APC conjugated anti-TREM-1 antibody (eBioscience). Cell sorting was performed using LSRII (BD Bioscience).

[4] = 22-week-old DIO mice, 14 days, 20 mg/kg
[5] = DIO mice, 20 mg/kg i.p. for 14 days

Cc1cc(CN2CCN(Cc3ccncc3)CC2)ccc1-c1ccc(C(O)(C(F)(F)F)C(F)(F)F)cc1 [SR1903, 1,1,1,3,3,3-hexafluoro-2-(2′-methyl-4′-((4-(pyridin-4-ylmethyl)piperazin-1-yl)methyl)-[1,1′-biphenyl]-4-yl)propan-2-ol]
LPS induction of TREM-1 gene expression (qPCR) (TREM-1 [1]; 26 hr exposure): significantly repressed | LPS induction of TREM-1 gene expression (qPCR) (TREM-1 [1]; 50 hr treatment): maintained repression | TREM1 signaling expression (RNA sequencing) (TREM-1 [1]; LPS-stimulated RAW264.7 cells, 10 μM compound vs DMSO-only): significantly suppressed | activity on RORβ (RORβ): lack activity | effect on TREM1 promoter activity (murine TREM1 promoter; co-expression with PPARγ and LXRβ): little effect | attenuation of TREM1 promoter activity (murine TREM1 promoter; co-expression with RORγ): ~50% | plasma exposure relative to IC50 (Pharmacokinetics in mice): sufficient to have compound levels above its IC50 | expression of ACACA and FASN (RAW264.7 cells; LPS-stimulated RAW264.7 cells): increased | expression of LXR target genes including ABCG1 and SCD (RAW264.7 cells; LPS-stimulated RAW264.7 cells, RNA sequencing): increased the expression | expression of IL6 and IL33 (RAW264.7 cells; LPS-stimulated RAW264.7 cells, RNA sequencing, confirmed by qPCR): robustly dampened | expression of SENP2 and SENP6 (RAW264.7 cells; LPS-stimulated RAW cells, RNA sequencing): repressed | expression of SENP3 (RAW264.7 cells; LPS-stimulated RAW cells, RNA sequencing, qPCR): increased the expression | IL17A expression (EL4 cells): repressed | IL17F expression (EL4 cells): repressed | obesity related thymic involution (diet-induced obesity; [4]): protected from obesity related thymic involution | thymus weight (diet-induced obesity; [4]): increase in thymus weight | Socs3 expression in the hypothalamus (diet-induced obesity; DIO mice): repressed | fasting and fed insulin levels (diet-induced obesity; DIO mice): improved | fasting leptin levels (diet-induced obesity; DIO mice): did not alter | food intake (diet-induced obesity; DIO mice): reduced food intake | leptin resistance (leptin sensitivity test) (diet-induced obesity; DIO mice): reduced | differentiation of αβTCR+CD4+ and αβTCR+CD8+ cells (diet-induced obesity; DIO mice thymocytes): no effect | λδT cell differentiation (diet-induced obesity; DIO mice thymocytes): increase | HDL, TAG, and FFA (diet-induced obesity; [5]): no effect | fasting glucose levels (diet-induced obesity; [5]): improved | glucose excursion in glucose tolerance test (diet-induced obesity; [5]): statistically significant improvement | total cholesterol and LDL (diet-induced obesity; [5]): reduced | body weight reduction (diet-induced obesity; DIO mice, 14 days of treatment): ~15% | reduction of fat mass (diet-induced obesity; DIO mice, 14 days, determined by NMR): ~17% | leptin in freely feeding mice (diet-induced obesity; DIO mice, compared to vehicle): statistically reduced | conditioned taste aversion ([2]; 20 mg/kg): no effect | food intake ([2]; lean mice): no effect on food intake | LPS-induced TREM1 cell surface expression (TREM-1 [3]): completely blocked
